≈ marks a conversion by molar mass, not a printed value. Entries after “also recorded” stand apart in the source; their conditions may differ.
What was measured:
[1] = test system: fibroblast growth factor receptor (FGFR); settings: cited from earlier work
[2] = Thermogravimetric analysis (thermal stability); type: physicochemical
Description: TGA is a method of thermal analysis in which the mass of a sample is measured over time as the temperature changes. TGA evaluates the thermal stability of a material.
(§1) X-ray powder diffraction (XRPD) studies in the present disclosure were performed using a Bruker D8 ADVANCE X-ray powder diffractometer. The parameters of the XRPD method of Compound I were as follows: • X-ray reflection: Cu, Kα • Kα1 (Å): 1.540598; Kα2 (Å): 1.544426 • Kα2/Kα1 intensity ratio: 0.50 • Voltage: 40 kV • Current: 40 mA • Scanning range: from 3.0 to 40.0 degree • Differential scanning calorimetry (DSC) data in the present disclosure were acquired by a TA DSC250. The parameters of the DSC method of Compound I were as follows: • Heating rate: 10° C./min • Purging gas: nitrogen • Thermogravimetric analysis (TGA) data in the present disclosure were acquired by a TA TGA550. The parameters of the TGA method of Compound I were as follows: • Heating rate: 10° C./min • Purging gas: nitrogen • Dynamic vapor sorption (DVS) data in the present disclosure were acquired by a SMS Intrinsic DVS. The parameters of the DVS method of Compound I were as follows: • Temperature: 25° C. • Gas and flow rate: nitrogen, 200 mL/min • dm/dt: 0.002%/min • Relative humidity (RH) range: 0% RH-95% RH

[3] = Hygroscopicity assessment by DVS; type: physicochemical; settings: for hygroscopicity / water uptake: DVS; for XRPD before and after DVS testing: DVS 0% RH-95% RH; for water uptake: 80% RH, 25° C.
Description: as §1
About 30 mg Form A of Compound I was assessed for hygroscopicity using a DVS analyzer, and tested by XRPD before and after DVS analysis. DVS is a gravimetric technique that measures how quickly and how much of a solvent is absorbed by a sample.
About 30 mg Form C of Compound I was assessed for hygroscopicity using a DVS analyzer, and tested by XRPD before and after DVS analysis.

[4] = Stability assessment on storage (XRPD and HPLC purity); type: physicochemical; settings: for XRPD change after storage / purity change after storage / stability after storage: 25° C./60% RH and 40° C./75% RH (opened) one week
Description: About 10 mg Form A of Compound I was added to each 1.5-mL glass vial and stored at (i) 80° C. (closed) for one day, or (ii) 25° C./60% RH and 40° C./75% RH (opened) for one week, and then analyzed for XRPD and HPLC purity.
About 10 mg Form C of Compound I was added to each 1.5-mL glass vial and stored under 25° C./60% RH (FIG. 13) and 40° C./75% RH (opened, FIG. 14) for one week, and then analyzed for XRPD and HPLC purity.

[5] = Equilibrium solubility in water; type: physicochemical; settings: for solubility classification: water, room temperature, 24 hours
[6] = Interconversion of Forms A-C (heating and slurry competition); type: physicochemical; settings: for form obtained from slurry competition: equal amounts of Form A and B, isopropyl alcohol/water, aw=0~1, room temperature
From the text: The relationships among Forms A-C were investigated via heating and slurry competition experiments.

[7] = 25° C./60% RH for 1 week (opened)
[8] = 40° C./75% RH for 1 week (opened)

Compound: C=CC(=O)N1CC[C@H](n2nc(C#Cc3cc(OC)cc(OC)c3)c(C(N)=O)c2NC)C1 [Compound I, (S)-1-(1-acryloylpyrrolidin-3-yl)-3-((3,5-dimethoxyphenyl)ethynyl)-5-(methylamino)-1H-pyrazole-4-carboxamide]
- FGFR inhibition [1]: potent inhibitor

Compound: C=CC(=O)N1CC[C@H](n2nc(C#Cc3cc(OC)cc(OC)c3)c(C(N)=O)c2NC)C1 [Form A, (S)-1-(1-acryloylpyrrolidin-3-yl)-3-((3,5-dimethoxyphenyl)ethynyl)-5-(methylamino)-1H-pyrazole-4-carboxamide]
- thermal stability ([2]; TGA, heated to 180° C.): thermally stable
- weight loss (TGA) ([2]; heated to 180° C.): about 0.02%
- hygroscopicity [3]: not hygroscopic
- XRPD before and after DVS testing [3]: did not change
- water uptake [3]: 0.14%
- Purity (%) [4, 7]: 99.78%
- Purity (%) [4, 8]: 99.76%
- XRPD change after storage ([4]; 80° C. (closed) one day): little or no change
- purity change after storage ([4]; 80° C. (closed) one day): no purity change
- stability after storage ([4]; 80° C. (closed) one day): stable
- Purity (%) ([4]; 80° C. for 1 day (closed)): 99.77%
- Purity (%) ([4]; Day 0): 99.75%
- solubility classification [5]: almost insoluble or insoluble
- form obtained from slurry competition [6]: gave Form A
- thermodynamic stability ([6]; room temperature, versus Form B and C): better thermodynamic stability

Compound: C=CC(=O)N1CC[C@H](n2nc(C#Cc3cc(OC)cc(OC)c3)c(C(N)=O)c2NC)C1 [Form B, (S)-1-(1-acryloylpyrrolidin-3-yl)-3-((3,5-dimethoxyphenyl)ethynyl)-5-(methylamino)-1H-pyrazole-4-carboxamide]
- weight loss by TGA ([2]; temperature not stated): about 2.42%
- chemical stability [4]: chemically stable
- physical stability ([4]; can be converted to Form A or Form C): not physically stable
- solubility thermodynamic ([5]; thermodynamic from solid, conditions not stated): 15.1 µg/mL (≈ 35.8 µM)
- form obtained from slurry competition [6]: gave Form A

Compound: C=CC(=O)N1CC[C@H](n2nc(C#Cc3cc(OC)cc(OC)c3)c(C(N)=O)c2NC)C1 [Form C, (S)-1-(1-acryloylpyrrolidin-3-yl)-3-((3,5-dimethoxyphenyl)ethynyl)-5-(methylamino)-1H-pyrazole-4-carboxamide]
- weight loss (TGA) ([2]; heated to 180° C.): about 2.40%
- hygroscopicity [3]: moderately hygroscopic; also recorded: moderately hydgroscopic
- XRPD before and after DVS testing [3]: did not change
- water uptake [3]: 5.44%
- XRPD change after storage [4]: little or no change
- purity change after storage [4]: no significant purity change
- stability after storage [4]: stable
- Purity (%) [4, 7]: 96.91%
- Purity (%) [4, 8]: 96.99%
- Purity (%) ([4]; Day 0): 96.83%
- solubility ([5]; after equilibrium in water at room temperature for 24 hours): 15.93 µg/mL (≈ 37.6 µM)
- solubility classification [5]: almost insoluble or insoluble
- form conversion on heating ([6]; heating to 145° C. and subsequently cooling to room temperature): converted to Form A

Source: US12297188B2, “Crystalline forms of (S)-1-(1-acryloylpyrrolidin-3-yl)-3-((3,5-dimethoxyphenyl)ethynyl)-5-(methylamino)-1H-pyrazole-4-carboxamide” (Beijing InnoCare Pharma Tech Co., Ltd., priority 2019, dated 2025)
